The values below come from US8815210B2, “Diagnostic composition comprising plasma cations having superior safety profile” (GE Healthcare AS, priority 2009, dated 2014).

One data set has as its system normal pigs. The data set can be described thus: Haemodynamic effects after LAD injection in normal pigs without balloon occlusion (Example 2b). It is filed as in vivo, pig. The settings on record: 25 ml (0.4 ml/sec) into LAD, 9 injections in 3 pigs. From the text:
FIG. 5 depicts the effect of Compound I (with and without added Ca) and Visipaque on LVSP 45 to 70 seconds from the start of injection to the LAD of normal pigs normalised to Ringer Lacate (LR) injection.
The haemodynamic effects of compositions of Compound I with and without added CaCl2 were compared to Visipaque and Iopamidol following selective administration to the LAD in normal pigs without balloon occlusion. The effects of each contrast media were normalised to any effects seen with an equivalent injection of Ringer Lactate solution, which acted as a volume and electrolyte—“ratio” control. There were a total of 12 pigs in this study, and each pig received a single CM injected 3 times at volumes of 10 ml (4 ml/sec), 20 ml (1 ml/sec) and 25 ml (0.4 ml/sec) (total of 9 CM injections in each pig). Each CM was either preceded or followed by a control injection of Ringer Lactate, and the order of each injection (volume) was randomised in each pig.

Data set [1] deals with human serum albumin (HSA). The data set can be described thus: Binding to human serum albumin, equilibrium dialysis. The format is in vitro ADME. The settings on record: 25 hours, citrated human plasma. The method, then: The binding of Compound I to human serum albumin (HSA) was determined using an equilibrium dialysis method. The binding of Compound I to human serum albumin was determined to be very low, 3.1±1.3%, confirming the negligible interaction of the substance with endogenous proteins.
The binding of Compound I to human serum albumin (HSA) was determined using an equilibrium dialysis method. A stock solution of Compound I (5.0 mg/ml in phosphate buffered saline (PBS)) was mixed with citrate:human plasma in a ratio of 1:9. Equilibration was carried out in a Diachem Dianorm Dialyser against an aqueous phosphate buffered saline using a Diachem 10.17 MW cutoff 10000 membrane and was carried out for 25 hours. Analysis of the solutions was performed using an ICP-AES instrument. In addition, spiked PBS solutions were also equilibrated against citrated human plasma solutions to ensure that the equilibrium had been obtained. The binding of Compound I to human serum albumin was determined to be very low, 3.1±1.3%, confirming the negligible interaction of the substance with endogenous proteins. As a reference, the binding of iodixanol to HSA was determined to 0.4±0.9%.

A short description of data set [2]: Partition coefficient between octanol and water. It is filed as physicochemical. The settings on record: n-octanol/water. As for the experimental part:
As a measure of the hydrophilicity of Compound I, the partition coefficient between octanol and water was determined. Water (5 ml) containing the test substance (0.3 mg/ml) was shaken with 15 ml n-octanol until equilibrium had been obtained. The aqueous phase was separated by centrifugation and analyzed by HPLC (HP1100 equipped with a Discovery C18 column, 100×2.1 mm) using UV detection at 244 nm and a flow of 0.3 ml/min. Isocratic HPLC conditions were used, 8% acetonitrile in water (v/v). The octanol phase (12.5 ml) was extracted with water (0.75 ml) until equilibrium had been obtained and the phases were separated by centrifugation. The aqueous phase was analyzed by HPLC using the conditions detailed above. Both octanol and water were pre-saturated with water and octanol, respectively, before the partition coefficient experiments. […] As a comparison, the corresponding logP of iodixanol was determined to −4.02. The reported literature value is −4.05. The increased hydrophilicity of Compound I compared to iodixanol is confirmed by its HPLC behavior.

Data set [3] concerns CD25^+-depleted peripheral blood mononuclear cells. The data set can be described thus: In vitro T cell proliferation model. The format is cell-based. The settings on record: 2 and 5 mg I/mL. The method, then:
Generally, iodinated contrast media may cause late hypersensitivity reactions in susceptible patients from 1 hour to several days after exposure. These reactions are mainly non-serious skin eruptions such as macular, maculopapular and urticaria-like eruptions. Contrast media-induced delayed adverse reactions (DARs) such as skin eruptions appear to be caused by contrast media-reactive T cells that, upon recognizing the contrast media, proliferate and subsequently orchestrate an inflammatory reaction in the skin. The applicant has evaluated an in vitro T cell proliferation model designed to predict the relative frequency with which contrast media, such as Compound I, will cause late skin reactions in patients post-intravascular administration. Two contrast media, iodixanol and iohexol, with known rates of delayed skin reactions, and the new contrast medium, Compound I, was screened (2 and 5 mg I/mL) for in vitro T cell proliferation in CD25^+-depleted peripheral blood mononuclear cells from 100 donors representing world population HLA-DR frequencies. Positive T cell responses were evaluated according to published protocols and stimulation index values (positive response≧1.9). In vitro toxicity was tested by measuring cell viability of the first 10 donor samples incubated with test contrast media (5 mg I/mL). The results were that all major HLA-DR allotypes were represented with a frequency equivalent to the world population. No contrast media tested appeared to have a meaningful effect on cell viability. […] For iodixanol and iohexol, T cell proliferation responses for most donors occurred on days 7 and 8; statistical significance favored a reduced proliferation response to Compound I on day 8. In conclusions the model successfully established the relative frequency with which contrast media caused in vitro T cell activation. The results correlated with reported frequency of late skin reactions with two marketed contrast media and identified a lower frequency for Compound I.

The conditions of data set [4]: octanol/water; cited from earlier work.
Another data set concerns Sca:SD rats. The settings on record: rat, in vivo. As for the experimental part:
Young adult male Sca:SD rats (Scanbur, Sweden), weighing 200±20 g, were injected intravenously at a rate of 1.2 ml/min with either Compound I (340 mgI/mL, 286 mosmol/kg), iodixanol (321 mgI/mL, 284 mosmol/kg), osmotic control mannitol (283 mosmol/kg), or saline (290 mosmol/kg), administered as 2 separate doses 4 hours apart. For the interim kill animals (day 2 post-treatment), Compound I and iodixanol were dosed at 8, 10 and 12.8 gI/kg, corresponding to total dose volumes of 23.7, 29.7 and 38.0 ml/kg, and 25, 31.3 and 40 ml/kg, respectively, whereas for mannitol and saline, the dose volume was 40 ml/kg. For the 7 day terminal kill animals, there were 4 dose groups; Compound I and iodixanol (12.8 gI/kg), and saline and mannitol (40 mL/kg). In all cases, each group included 8 animals.
The following evaluations were made during the study; clinical signs, body weights and blood for haematology and clinical chemistry on days 0, 2 and 7, and gross observations, organ weight and histomorphological examination of tissues from the animals killed by excess intravenous thiopental injection on days 2 or 7. The day of dosing was defined as Day 0. Clinical biochemistry parameters (Na, K, Cl, PO4, Ca, AST, ALT, ALP, cholesterol, creatinine, CK, GGT, TG (triglyceride), total bilirubin, total protein, urea, albumin, LDH and GLDH were measured on a Beckman Synchron CX5 at 37° C. Haematology parameters (WBC, differential WBC, RBC, WBC/RBC ratio, Hgb, PLT, HCT, MCH, MCHC, MCV, MPV and RDW) were analyzed with an Abbott Cell-Dyn 3500 CS automated haematology analyzer. Kidneys from saline control and the 12.8 gI/kg Compound I and iodixanol groups were immerse fixed in 10% neutral buffered formalin, processed into paraffin wax, sectioned at a nominal thickness of 5 μm, stained with haematoxylin and eosin and examined by light microscopy.
The data were analysed by parametric one-way ANOVA, followed by Dunnett's post procedure test, using the 2 days and 7 days saline groups for comparison with the 2 days and 7 days iodixanol and Compound I groups. The statistical analysis was applied on day −1 (baseline), day 2 and day 7.

A short description of data set [5]: Osmolality, vapour pressure osmometer. It is filed as physicochemical. The settings on record: 320 mgI/ml. As for the experimental part:
The osmolality of Compound I was determined at four different concentrations, 204, 254, 310 and 324 mgI/ml. The osmolality of Compound I at 320 mgI/ml is 136 mOsm/kg.
The osmolality of Compound I was determined at four different concentrations, 204, 254, 310 and 324 mgI/ml. A Vapro 5520 vapour pressure osmometer from Vapro Inc. was used.
The osmolality of Compound I at 320 mgI/ml is lower than that of iodixanol, 136 mOsm/kg vs 210 mOsm/kg at 320 mgI/ml.

Entries after “also recorded” stand apart in the source; their conditions may differ. Read-outs that look alike come from different tables or passages of the source.

As for `C[C@H](O)C(=O)Nc1c(I)c(C(=O)NC(CO)CO)c(I)c(C(=O)NC(CO)CO)c1I` [Iopamidol, reference compound], the “induction of ventricular fibrillation (VF)” value in the data set on normal pigs is listed as “VF was observed in each case; also recorded: induced VF on every occasion”.
For `CC(=O)N(CC(O)CN(C(C)=O)c1c(I)c(C(=O)NCC(O)CO)c(I)c(C(=O)NCC(O)CO)c1I)c1c(I)c(C(=O)NCC(O)CO)c(I)c(C(=O)NCC(O)CO)c1I` (stereo not drawn) [iodixanol, reference compound], the “binding to human serum albumin (HSA)” value in data set [1] stood at 0.4±0.9%. In data set [2], the logP (as a rule, the decadic logarithm of the partition coefficient of the neutral form, usually between octanol and water) was -4.02. Also, in data set [3], the “days on which T cell proliferation responses occurred for most donors” value was “days 7 and 8”. Moreover, the “logP, reported literature value” in data set [4] is listed as −4.05. Further, the “Glomerulus: Bowman's Space Proteinaceous Material, Right Kidney” value in the data set on Sca:SD rats (male, Sca:SD, 2 day) is reported as “P, P, P, 0”. In the data set on Sca:SD rats (male, Sca:SD, iv), the “duration of clinical signs” value is 2 to 3 h and the “onset of clinical signs after the first administration” value lay within 10 to 20 min. The “Glomerulus: Bowman's Space Proteinaceous Material, Right Kidney” value with Sca:SD rats was “P, P, P, P,”. Besides, the adverse clinical signs result with Sca:SD rats (iv) is “mild to moderate depression and uncoordinated movements and weakness/inactivity”. In data set [5], this compound displayed an osmolality of 210 mOsm/kg.
As for `CC(=O)N(CC(O)CO)c1c(I)c(C(=O)NCC(O)CO)c(I)c(C(=O)NCC(O)CO)c1I` (stereo not drawn) [iohexol, reference compound], in data set [3], the “days on which T cell proliferation responses occurred for most donors” value is “days 7 and 8”.
